What was measured:
Schistosoma mansoni [1] = experiment: in vitro schistosomicidal activity (motility of isolated worm pairs); format: cell-based; conditions: 25 μg/ml alone
Experimental: In order to test the in vitro activity of preparations, worm pairs of Schistosoma mansoni are isolated from mice and incubated at 37° C. in a nutrient medium. Test preparations are added in the form of a solution or as a suspension. The motility of the worms is observed under the microscope and registered during the test duration of 120 hours. A schistosomicidal activity of a test preparation manifests itself in the more or less rapid loss of motility of the worms. Control worms in the nutrient medium without the addition of test preparation maintain their normal motility during the entire test duration of 120 hours.
(§1) The following representative compounds of formula I were tested in tests described earlier for possible detrimental effects on the schistosomicidal activity of (+)-5-(o-chlorophenyl)-1,3-dihydro-3-methyl-7-nitro-2H-1,4-benzodiazepin-2-one (compound S).

Schistosoma mansoni [2] = experiment: schistosomicidal activity in infected mice; format: in vivo; conditions: Mouse; Compound S 75 mg/kg p.o. alone
Experimental: (§2) Mice and golden hamsters are infected subcutaneously with 60 cercaria of Schistosoma mansoni. Ca 42 days after the infection, they are treated orally with a single dosage of the compound to be tested. 5 Animals are used per test preparation and dosage. 10 Untreated animals are used as controls. The animals are killed and dissected 2 weeks (hamster) or 3 weeks (mice) after the treatment. Worm pairs in mesenteric veins, portal vein and liver are dissected-out, counted and the condition of the worms (living or dead) is registered. A schistosomicidal activity of a test preparation manifests itself in the appearance of dead worms in the vessels of the liver. Dead worms are never found in untreated control animals. The test is evaluated by calculating the percentage of dead worm pairs in the vessels of the liver in infected, treated animals.
as §1

Schistosoma mansoni [3] = experiment: schistosomicidal activity in infected golden hamsters; format: in vivo; conditions: Hamster; Compound S 75 mg/kg p.o. alone
Experimental: as §2, §1

With `CC1N=C(c2ccccc2Cl)c2cc([N+](=O)[O-])ccc2NC1=O` (single isomer, unassigned; (+)) [Compound S, (+)-5-(o-chlorophenyl)-1,3-dihydro-3-methyl-7-nitro-2H-1,4-benzodiazepin-2-one] the “Activity (in vitro)” value (Schistosoma mansoni [1]) was “a (worm pairs motionless within 15)”, the “Schistosomicidal activity in %” value (Schistosoma mansoni [2]) was 99% and the “Schistosomicidal activity in %” value (Schistosoma mansoni [3]) was 100%.

— patent publication US4316839A, “Imidazodiazepine derivatives” (Hoffman-La Roche Inc., priority 1979, dated 1982)
